“And” between values parts separate entries of the source, which are not always exact repeats. Equal entries are not always repeated. “Also recorded” adds a separate entry of the source. Where two headings read alike, the source gives them in different places.
Legend:
L. infantum = tested on: L. infantum; parameters: method as in PMID 21833767, PMID 22926569; conditions: conditions and methods vary; read-out: Antileishmanial activity of other compounds; cited from earlier work
[1] = Cytotoxicity assay on Vero cells (resazurin); assay type: cell-based, African green monkey; conditions: African green monkey, Vero cells (ATCC CRL-1587), 24 h treatment
Description: (§1) For the experiment, Vero cells (ATCC CRL-1587) were used in Roswell Parl Memorial Institute (RPMI) medium with 10% fetal bovine serum (FBS) (RPMI 10%) and 20 μg/mL of Gentamicin. They were cultivated in culture bottles of […] and kept in an oven at 37 °C with 5% carbon dioxide (CO2). When picked or used on the day of the experiment, the cells were detached from the wall of the bottles with saline and 1X trypsin/EDTA. To find out how many cells there were in the bottle, it was diluted in Turkey liquid and then we proceeded with the counting in the Neubauer Chamber to calculate the desired concentrations. The Vero cells were plated at […] cells per well, in 96-well plates, and kept in an incubator with 5% CO2 at 37 °C for 24 h. Then, the compounds were added in triplicate, starting at a concentration of 500 µM, with serial dilution being performed up to a concentration of 3.9 µM [54]. The treatment was carried out for 24 h, and, after adding 5 µL of resazurin, the fluorescence was read using a spectrofluorometer (EnSpire Perkin-Elmer, Waltham, MA, USA).

Leishmania braziliensis = assay: Leishmanicidal activity against promastigotes (resazurin); assay type: cell-based; conditions: for IC50: promastigote form, 24 h treatment, resazurin, read-out: IC50 L. braziliensis; for SI L. braziliensis: selectivity index = CC50 (Vero) / IC50 (L. braziliensis promastigotes)
Description: (§2) The Leishmania infantum and Leishmania braziliensis strains were maintained in Schneider medium supplemented with 20% of SFB (Schneider 20%), cultivated in […] bottles and stored at 28 °C in a BOD oven. For the assays, parasites at the 5th day stationary growth phase were used.
(§3) The promastigotes metacyclic form of Leishmania infantum and Leishmania braziliensis were first filtered with an insulin syringe to break up rosettes and, then, were isolated from the culture in the stationary phase by centrifugation of 400× g for 4 min at a temperature of 4 °C [53]. The supernatant was subjected to a new centrifugation, heavier, of 2000× g for 30 min, also at 4 °C. The supernatant was discarded and the cell pallet formed from this centrifugation was resuspended in 10 mL of 10% Schneider medium. The process ensured the removal of cellular debris and dead parasites, as well as possible crystals from the culture medium, so that the quality of the experiment was guaranteed. Then, the promastigotes were diluted to 1:10 in paraformaldehyde (PFA) for counting in a Neubauer Chamber, with the concentrations adjusted for each experiment.
(§4) An amount of 1 × 10^7 parasites per well was used. The parasites were plated in 96-well plates. Then, the compounds were added in triplicate, starting at a concentration of 500 µM, with serial dilutions being performed up to a concentration of 3.9 µM [53]. The treatment was carried out for 24 h and, after adding 5 µL of resazurin, the fluorescence was read using a Enspire model spectrofluorometer (Perkin-Elmer, Waltham, MA, USA).

Leishmania infantum = assay: as above; assay type: cell-based; conditions: for IC50: promastigote form, 24 h treatment, resazurin, read-out: IC50 L. infantum; for SI L. infantum: selectivity index = CC50 (Vero) / IC50 (L. infantum promastigotes)
Description: as §2, §3, §4

[2] = tested on: RAW macrophages infected with Leishmania infantum; assay: Infectivity test / infection rate in RAW macrophages; assay type: cell-based; conditions: three concentrations (below IC50, IC50, above IC50), 24 h treatment
Description: For the infection of RAW macrophages adhered to the plates, we used parasites in the promastigote form of Leishmania infantum, in the stationary phase, in a ratio of 10:1 (promastigotes/macrophages).
Macrophages were plated in the amount of 5 × 10^4 cells per well, in 96-well plates, which were kept in a CO2 oven at 37 °C for 24 h. The parasites were plated at a concentration of 10:1. The plates were kept in a CO2 oven for 12 h until the parasites infected the cells. […] Plates were fixed with paraformol for further evaluation. Plaques were evaluated by counting parasites within 200 cells under the EVOS Cell Imaging System (Thermo Scientific, Waltham, MA, USA) microscope by staining with propidium iodide.
In view of the data obtained, the six most promising compounds (HL1^Ch, HL2^Ph, Ag3, Ag4, Ag6 and Au2) were selected for carrying out the infection rate test against the L. infantum parasite. […] This test was performed at four stages. The first step determined the percentage of the amount in 200 infected macrophages per parasite, the second determined the percentage of parasites that infects 100 cells/macrophages, the third determined the average percentage of parasites that infects 200 cells/macrophages and, finally, the fourth step indicated the infection rate, that is, the result of the amount of Leishmania per macrophage (obtained from the third step) multiplied by the percentage of infected macrophages. Figure 5 presents the graphs of the infection rates, while the other graphs can be found in Figure S7.4.

LbOYE [3] = target: T1, LbOYE (Leishmania braziliensis, UniProt A4H6Z3); assay: Suppression of intrinsic tryptophan fluorescence of LbOYE; assay type: binding; conditions: for Affinity of LbOYE for the compound (fluorescence quenching), in words: Hill fit for Kd not possible for these ligands; for Kd / Ksv *** (Stern–Volmer constant) / n ** (number of bonding sites): 25 °C; for Ksv *** (Stern–Volmer constant): Equation (3)
Text: The recombinant LbOYE protein was produced using the methodology previously described. Briefly, the protein was expressed in strains of bacterial Escherichia coli BL21(DE3) through induction by IPTG using the pET28a:LbOYE vector. The enzyme was purified through a chromatography step of capture by nickel affinity, as the pET28a vector allows the expression of a polyhistidine fusion peptide, located at the N-terminal end of the protein. After affinity purification, the polyhistidine tail was excised by “overnight” incubation with thrombin, and the second purification step was performed using size exclusion chromatography. Purification was evaluated by SDS-PAGE and protein concentration was estimated by spectrophotometry.
The emission spectra of the intrinsic fluorescence of the tryptophan were recorded using a Shimadzu F-4500 spectrofluorometer in the range of 310–420 nm, with opening of slits of excitation and emission at 5.0 nm and λex = 295 nm. Interaction analyzes between LbOYE and ligands were performed at λmax = 333 nm.
(§5) The compounds were solubilized in DMSO and then we made successive dilutions in a Tris-HCl 25 mmol L^−1 buffer, pH 8.0, containing 100 mmol L^−1 of NaCl. For all experiments, the final concentration of DMSO was kept constant and equal to 2.5%. Solutions with increasing concentrations of ligand and constant concentration of LbOYE (1 µmol L^−1) were prepared, which were kept at 25 °C for a period of 1h before acquisition of fluorescence emission spectra.
The results were obtained from the fluorescence emission spectra of the intrinsic tryptophan probe in the presence of the compounds HL1^Ch, HL3^FPh, HL5^NO2Ph, [Au(HL1^Ch)2]Cl and [Ag(HL3^FPh)2]NO3. The bonding parameters were determined by the Hill plot, obtaining the dissociation constant (Kd) through the non-linear adjustment of the saturation curve to the experimental data. The double-log plot was used to determine the bonding constant and the number of bonding sites (n). It also allows the calculation of the bonding constant (Kb) and Kd from 1/Kb.
Equation (1)—Hill’s equation:(1) F0−F/F0=[L]/L+Kd
Equation (2)—Double-log:(2) logF0−F/F0=nlogKb−nlog1/L−(F0−F)[P0]/F
Equation (3)—Equation of Stern–Volmer:(3) F0/F=1+KSV[L]
The study of fluorescence quenching can be affected when the ligand has absorption bands that coincide with excitation and emission wavelengths of fluorescence. This interference is called the internal filter effect, which can be minimized using the procedure described by Equation (4). Fobs and Fcor are the fluorescence intensities at 333 nm measured and corrected, respectively; l represents the optical step where the absorption and emission of light occurs and C0 is the concentration of the ligand.
For the correction of the internal filter effect, were used the molar absorptivity coefficient values in the excitation (295 nm) and emission (333 nm) lengths, [λ/ε (L mol^−1 cm^−1)]; HL1^Ch (εex = 373 and εem = 117), HL3^FPh (εex = 1191 and εem = 57), HL5^NO2Ph (εex = 6162 and εem = 9124), Au1 (εex = 7045 and εem = 4008) and Ag3 (εex = 9431 and εem = 3281).

[4] = Solubility in buffer for the fluorescence experiments; assay type: physicochemical; conditions: Tris-HCl buffer
Description: as §5
After the synthesis and structural characterization of the compounds, studies of interaction of the compounds and the recombinant LbOYE were carried out by fluorescence measurements.

L. braziliensis = tested on: L. braziliensis; parameters: method as in PMID 32830445; conditions: activity against L. braziliensis and cytotoxicity on macrophages; cited from earlier work
Vero cells = assay: Cytotoxicity assay on Vero cells (resazurin); assay type: cell-based, African green monkey; conditions: 24 h treatment
Description: as §1

LbOYE [5] = target: T1, LbOYE; assay: LbOYE enzyme kinetics (NADPH decay at 340 nm); assay type: biochemical; conditions: 20 µmol L^−1 compound, 1 µmol L^−1 LbOYE, 100 µmol L^−1 NADPH; substrates NEM and O2
Description: The initial rates were obtained through the decay of the band at 340 nm referring to the maximum absorption of the NADPH (Nicotinamide Adenine Dinucleotide Phosphate) reducer, as previously reported. Solutions containing 1 µmol L^−1 of LbOYE, DMSO or 20 µmol L^−1 of the tested compounds from a stock solution at a concentration of 5 mmol L^−1 in DMSO were prepared in the presence and absence of the substrate N-Ethylmaleimide (NEM). These solutions were left for 30 min at room temperature. After 30 min, the NADPH reducer was added at a final concentration of 100 µmol L^−1.
Figure 7 Initial velocity (V0) for the reaction between 1 µmol L^−1 of LbOYE and 100 µmol L^−1 of NADPH in the presence of DMSO (control) or 20 µmol L^−1 of the compounds tested. Using (A) 100 µmol L^−1 of NEM in the presence of O2 and (B) absence of NEM in the presence of O2. Experiments carried out in phosphate buffer 25 mmol L^−1 pH 7.0, NaCl 100 mmol L^−1.

[6] = Hill plot (n = 1), Equation (1), Tris-HCl pH 8.0, 2.5% DMSO, read-out: Kd * (Hill plot)
[7] = double log, Equation (2), Kd = 1/Kb, read-out: Kd ** (double log) (converted)

T1 sequence (A4H6Z3 entry or part of it): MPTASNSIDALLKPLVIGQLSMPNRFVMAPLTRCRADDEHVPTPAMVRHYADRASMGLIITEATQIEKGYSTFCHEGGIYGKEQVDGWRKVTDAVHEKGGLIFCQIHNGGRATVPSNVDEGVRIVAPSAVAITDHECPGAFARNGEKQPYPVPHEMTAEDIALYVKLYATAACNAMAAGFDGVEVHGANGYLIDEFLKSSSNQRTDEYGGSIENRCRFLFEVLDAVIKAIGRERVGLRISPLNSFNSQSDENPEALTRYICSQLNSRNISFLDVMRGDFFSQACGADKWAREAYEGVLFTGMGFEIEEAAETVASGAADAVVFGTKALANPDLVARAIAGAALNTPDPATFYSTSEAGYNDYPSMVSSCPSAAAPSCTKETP

Row | Solubility in buffer at the concentrations for the fluorescence experiments, in words [4] | SMILES | IC50 (L. infantum) [µM] | CC50 at 24 h [1] [µM] | IC50 (Leishmania braziliensis; Leishmania braziliensis) [µM] | SI L. braziliensis (Leishmania braziliensis) | IC50 (Leishmania infantum; Leishmania infantum) [µM] | SI L. infantum (Leishmania infantum) | also measured
1 |  | CCP(CC)CC.[Au+].[Cl-] [[AuCl(PEt3)]] | 16.6 ± 1.03 |  |  |  |  |  | 
2 | passed this stage | Cc1ccc(S(=O)(=O)NNC(=S)NC2CCCCC2)cc1 [HL1^Ch] |  | 293 | 128.9 ± 0.051 | 2.27 | 11 ± 0.306 | 26.6 and 26.64 | Infection rate of L. infantum in macrophages, in words [2]: considerably lowered the infection rate of the parasite even at a concentration below its IC50; Affinity of LbOYE for the compound (fluorescence quenching), in words (LbOYE [3]): lower affinity
3 | passed this stage | Cc1ccc(S(=O)(=O)NNC(=S)Nc2ccc(F)cc2)cc1 [HL3^FPh, N-(4-fluorophenyl)-2-tosylhydrazinocarbothioamide] |  | 292 | 204.5 ± 0.018 | 1.43 | 201.2 ± 0.052 | 1.450 | Affinity of LbOYE for the compound (fluorescence quenching), in words (LbOYE [3]): lower affinity; also recorded: low affinity
4 |  | C[C@@H]1[C@H](O)[C@@H](C)/C=C/C=C/C=C/C=C/C=C/C=C/C=C/[C@H](O[C@@H]2O[C@H](C)[C@@H](O)[C@H](N)[C@@H]2O)C[C@@H]2O[C@](O)(C[C@@H](O)C[C@@H](O)[C@H](O)CC[C@@H](O)C[C@@H](O)CC(=O)O[C@H]1C)C[C@H](O)[C@H]2C(=O)O [amphotericin B] |  |  |  |  |  |  | SI (L. braziliensis): 6.8
5 | passed this stage | Cc1ccc(S(=O)(=O)NNC(NC2CCCCC2)=[S][Au+][S]=C(NNS(=O)(=O)c2ccc(C)cc2)NC2CCCCC2)cc1.[Cl-] [Au1, [Au(HL1^Ch)2]Cl] |  |  |  | 0.26 |  | 0.19 | CC50 (Vero cells): 19.9 µM; IC50 (Leishmania braziliensis): 77.38 ± 0.018 µM; IC50 (Leishmania infantum): 105 ± 3.14 µM; Kd (LbOYE [3]; [6]): 110 ± 30 µM; Ksv *** (Stern–Volmer constant) (LbOYE [3]): 2.4 ± 0.2 × 10^4; Kd (LbOYE [3]; [7]): 39 ± 3 µM; n ** (number of bonding sites) (LbOYE [3]; double log, Equation (2)): 1.8 ± 0.1; Inhibition of LbOYE reaction (initial velocity V0), in words (LbOYE [5]): demonstrates capacity of inhibition, although less than the Ag3
6 | passed this stage | Cc1ccc(S(=O)(=O)NNC(=S)Nc2ccc([N+](=O)[O-])cc2)cc1 [HL5^NO2Ph, N-(4-nitrophenyl)-2-tosylhydrazinocarbothioamide] |  | 26.6 | 19.02 ± 0.012 | 1.40 | 286.9 ± 0.075 | 0.09 | Kd (LbOYE [3]; [6]): 35 ± 2 µM; Ksv *** (Stern–Volmer constant) (LbOYE [3]): 6.5 ± 0.4 × 10^4; Kd (LbOYE [3]; [7]): 19 ± 1 µM; n ** (number of bonding sites) (LbOYE [3]; double log, Equation (2)): 1.5 ± 0.1
7 |  | CC(=O)OC[C@H]1O[C@@H]([S-])[C@H](OC(C)=O)[C@@H](OC(C)=O)[C@@H]1OC(C)=O.CCP(CC)CC.[Au+] [auranofin] | 9.68 ± 1.02 |  |  |  |  |  | 
8 |  | Cc1ccc(S(=O)(=O)NNC(=S)Nc2ccccc2)cc1 [HL2^Ph] |  | 268 | 273.5 ± 0.018 | 0.98 | 48.39 ± 0.189 | 5.5 and 5.54 | Infection rate of L. infantum in macrophages, in words [2]: the infection index was not relevant for a concentration below its IC50
9 |  | CCCCCCCCCCCCCCCCOP(=O)([O-])OCC[N+](C)(C)C [miltefosine] | 14.4 ± 1.1 |  |  |  |  |  | 
10 |  | COc1cc(NC(C)CCCN)c2ncccc2c1 (centres unmarked) [primaquine] | 26.5 ± 1.2 |  |  |  |  |  | 
